In article PMC8584244 (International Journal of Molecular Sciences, 2021):
≈ marks a conversion by molar mass, not a printed value. Like-named read-outs stand apart in the source and are kept apart here.

Legend:
[1] = tested on: H. pylori ATCC43504; test: MIC and MBC by broth micro-dilution with alamarBlue; format: cell-based; settings: Helicobacter pylori
Method: H. pylori colonies were collected and inoculated in Brucella Broth (BB; Oxoid Ltd., Hampshire, UK) added with 2% (v/v) of foetal bovine serum (FBS; Sigma Aldrich, Milan, Italy). […] Oxoid Ltd., Hampshire, UK). […] The MIC was determined by the broth micro-dilution method, following the guidelines of the Clinical and Laboratory Standards Institute. […] Carvacrol and thymol were resuspended in dimethyl sulfoxide (DMSO, Sigma-Aldrich, Milan, Italy) and were diluted in the liquid culture medium described above. […] The controls consisted of: (I) H. pylori broth culture; (II) BB plus 2% (v/v) of FBS, with the addition of the two CA inhibitors or amoxicillin at different concentrations; (III) just BB plus 2% (v/v) of FBS. Three independent experiments were performed in triplicate. The plates were then incubated at 37 °C for 72 h under microaerophilic conditions. […] AlamarBlue was added at 10% in each well, following the manufacturer instructions, and the plates were placed in an incubator for 4 h at 37 °C in microaerophilic conditions. After the incubation, the percentage of alamarBlue reduction of treated and untreated samples was determined, as previously described. The minimum bactericidal concentration (MBC) was determined by using the same wells stained with alamarBlue. Briefly, 100 μL of the bacterial suspensions, taken from the blue-violet wells, were seeded on the selected agar plates and incubated at 37 °C for 3–5 days in microaerophilic conditions.

[2] = tested on: L. acidophilus ATCC SD5214; test: MIC and MBC by broth microdilution in MRSB; format: cell-based; settings: Lactobacillus acidophilus
[3] = tested on: L. rhamnosus GG ATCC 53103; test: MIC and MBC by broth microdilution in MRSB; format: cell-based, Lactobacillus rhamnosus; settings: Lacticaseibacillus rhamnosus
[4] = tested on: L. reuteri DSM 17938; test: MIC and MBC by broth microdilution in MRSB; format: cell-based, Lactobacillus reuteri; settings: Limosilactobacillus reuteri
[5] = tested on: H. pylori ATCC43504 biofilm; test: antibiofilm activity (alamarBlue, CFU count, crystal violet, Live/Dead fluorescence microscopy); format: cell-based, Helicobacter pylori; settings: for CFU count of biofilm / inhibition of H. pylori biofilm development: sub-MIC (carvacrol, thymol 64 µg/mL; amoxicillin 0.016 µg/mL); for biofilm observed by fluorescence microscopy (Live/Dead): sub-MIC treated samples, 72 h of incubation
Method: The CA inhibitors and amoxicillin were diluted in liquid culture medium consisting of BB supplemented with 2% (v/v) of FBS and 0.3% (w/v) of glucose. […] The controls consisted of: […] The antibiofilm assay was performed in 96-well flat bottom microtiter plates (Eppendorf, Hamburg, Germany). The biofilm formation in the controls and treated samples was evaluated in 35 mm Petri dishes (Eppendorf, Hamburg, Germany) stained with Live/Dead staining and visualized by fluorescence microscope. Three independent experiments were performed in triplicate. The plates were incubated at 37 °C for 72 h under microaerophilic conditions. After 72 h of incubation, the minimum biofilm inhibitory concentration (MBIC) was determined through the alamarBlue assay, the CFU count, and the crystal violet (CV) assay (Sigma Aldrich, St. Louis, MO, USA). In detail, at the end of the incubation, the non-adherent cells, corresponding to the planktonic supernatant, were removed, and the biofilms were washed with 100 µL of DPBS (Sigma Aldrich, St. Louis, MO, USA). AlamarBlue was diluted to 10% in the selected culture medium, and 100 µL was added to each sample in the wells. The samples were incubated for 4 h at 37 °C in microaerophilic conditions, and subsequently the percentage of alamarBlue reduction was determined. The CFU count was carried out starting from the wells stained with alamarBlue. […] Serial dilutions of the stock were performed in DPBS, plated on the selected agar, and incubated at 37 °C under microaerophilic conditions for 3–5 days. The antibiofilm activity was also determined through crystal violet staining following the procedure indicated. Then, the absorbance at 590 nm was measured, and the percentage of biofilm biomass, normalized to the control, was determined. […] The biofilms developed in 35 mm Petri dishes were stained with Live/Dead™ BacLight™ Bacterial Viability Kit (Life Technologies Carlsbad, CA, USA) as previously reported and immediately visualized at the fluorescence microscope.

[6] = tested on: H. pylori ATCC43504 planktonic and biofilm phenotypes; format: cell-based, Helicobacter pylori
[7] = tested on: H. pylori; settings: Helicobacter pylori
[8] = tested on: H. pylori; test: flow cytometry detection of cell viability (Live/Dead BacLight); settings: sub-MIC treated samples, SYTO 9/propidium iodide
[9] = molecular target: (UniProt Q9ZK30); test: biochemical; parameters: species or system Helicobacter pylori; settings: read-out: Ki HpCAα
[10] = molecular target: T1, HpCAβ (Helicobacter pylori, UniProt O24855); test: biochemical; settings: mean from three assays, errors ±5–10%
T1 sequence (O24855 1-221): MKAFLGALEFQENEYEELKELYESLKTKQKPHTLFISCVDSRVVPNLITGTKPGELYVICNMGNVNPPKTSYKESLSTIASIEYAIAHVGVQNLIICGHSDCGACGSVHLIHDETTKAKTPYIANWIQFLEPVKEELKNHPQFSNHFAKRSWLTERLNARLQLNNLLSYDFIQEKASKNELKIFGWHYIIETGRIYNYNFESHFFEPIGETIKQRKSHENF

[11] = molecular target: PgiCAβ (Porphyromonas gingivalis, UniProt B2RL07); test: stopped-flow CO2 hydrase assay, PgiCAβ; format: biochemical
[12] = molecular target: SmuCA (Streptococcus mutans, UniProt Q8DVY1); test: stopped-flow CO2 hydrase assay, SmuCA; format: biochemical
[13] = molecular target: MgCA (Malassezia globosa, UniProt A8Q1N3); test: stopped-flow CO2 hydrase assay, MgCA; format: biochemical
[14] = tested on: several reference and clinical H. pylori strains; parameters: method as in PMID 33228095, PMID 33805064; settings: cited from earlier work
[15] = tested on: AGS cells; parameters: method as in PMID 33228095, PMID 33805064; settings: read-out: IC50 against AGS cells; cited from earlier work
[16] = molecular target: T1, HpCAβ; settings: both HpCAs; cited from earlier work
[17] = tested on: H. pylori ATCC43504/NCTC11637; settings: characterisation of reference strain ATCC43504/NCTC11637; no reference given; cited from earlier work
[18] = molecular target: T2, hCA I (Homo sapiens, UniProt P00915); test: stopped-flow CO2 hydrase assay, hCA I; format: biochemical
T2 construct: made in house; host or cells: Escherichia coli (DE3)

[19] = molecular target: T3, hCA II (Homo sapiens, UniProt P00918); test: stopped-flow CO2 hydrase assay, hCA II; format: biochemical
T3 construct: made in house; host or cells: Escherichia coli (DE3)

[20] = molecular target: T4, hCA VI (Homo sapiens, UniProt P23280); test: stopped-flow CO2 hydrase assay, hCA VI; format: biochemical
T4 construct: made in house; host or cells: Escherichia coli (DE3)

[21] = H. pylori ATCC43504, 72 h, microaerophilic, read-out: MIC
[22] = H. pylori ATCC43504, read-out: MBC
[23] = ATCCSD5214, L. acidophilus ATCC SD5214, 24 h, anaerobic, read-out: MIC
[24] = ATCCSD5214, L. acidophilus ATCC SD5214, read-out: MBC
[25] = ATCC53103, L. rhamnosus GG ATCC 53103, 24 h, anaerobic, read-out: MIC
[26] = ATCC53103, L. rhamnosus GG ATCC 53103, read-out: MBC
[27] = DSM17938, L. reuteri DSM 17938, 24 h, anaerobic, read-out: MIC
[28] = DSM17938, L. reuteri DSM 17938, read-out: MBC
[29] = Planktonic T (treated with sub-MIC concentration)
[30] = biofilm phenotype, sub-MIC concentration
[31] = planktonic phenotype, sub-MIC concentration

Chain of PgiCAβ (B2RL07 19-242): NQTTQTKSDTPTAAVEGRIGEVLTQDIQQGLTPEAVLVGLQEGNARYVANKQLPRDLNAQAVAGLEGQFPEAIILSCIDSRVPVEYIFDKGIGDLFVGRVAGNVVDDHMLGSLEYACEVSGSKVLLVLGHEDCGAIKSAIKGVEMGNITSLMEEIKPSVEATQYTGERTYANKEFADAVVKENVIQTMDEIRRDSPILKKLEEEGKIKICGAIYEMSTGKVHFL
Chain of MgCA (A8Q1N3 1-241): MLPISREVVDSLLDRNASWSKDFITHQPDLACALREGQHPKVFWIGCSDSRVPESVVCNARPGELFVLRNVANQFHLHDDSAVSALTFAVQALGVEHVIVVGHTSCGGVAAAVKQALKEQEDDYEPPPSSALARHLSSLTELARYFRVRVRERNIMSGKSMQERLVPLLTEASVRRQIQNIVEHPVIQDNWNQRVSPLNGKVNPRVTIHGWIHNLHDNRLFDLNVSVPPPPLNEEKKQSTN
Chain of SmuCA (Q8DVY1 1-166): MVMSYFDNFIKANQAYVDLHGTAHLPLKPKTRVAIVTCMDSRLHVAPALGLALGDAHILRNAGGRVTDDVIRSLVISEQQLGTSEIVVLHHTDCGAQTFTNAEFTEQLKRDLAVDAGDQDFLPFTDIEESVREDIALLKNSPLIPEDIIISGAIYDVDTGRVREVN
Chain of (UniProt Q9ZK30) (Q9ZK30 19-247 limits assumed): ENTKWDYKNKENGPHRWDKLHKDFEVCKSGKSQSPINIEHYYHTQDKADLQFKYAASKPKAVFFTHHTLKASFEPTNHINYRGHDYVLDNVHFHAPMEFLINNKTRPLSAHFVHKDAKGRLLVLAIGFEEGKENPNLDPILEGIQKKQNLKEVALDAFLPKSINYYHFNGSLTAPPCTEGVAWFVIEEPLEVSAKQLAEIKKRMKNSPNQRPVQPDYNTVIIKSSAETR
T2 sequence (P00915 whole entry): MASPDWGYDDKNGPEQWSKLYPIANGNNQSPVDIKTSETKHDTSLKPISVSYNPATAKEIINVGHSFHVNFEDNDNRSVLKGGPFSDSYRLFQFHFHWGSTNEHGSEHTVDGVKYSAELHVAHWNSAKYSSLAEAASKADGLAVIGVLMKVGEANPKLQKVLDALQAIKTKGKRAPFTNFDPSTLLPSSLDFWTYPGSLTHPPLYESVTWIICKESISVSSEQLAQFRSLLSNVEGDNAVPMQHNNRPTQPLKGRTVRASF
T4 sequence (P23280 18-308): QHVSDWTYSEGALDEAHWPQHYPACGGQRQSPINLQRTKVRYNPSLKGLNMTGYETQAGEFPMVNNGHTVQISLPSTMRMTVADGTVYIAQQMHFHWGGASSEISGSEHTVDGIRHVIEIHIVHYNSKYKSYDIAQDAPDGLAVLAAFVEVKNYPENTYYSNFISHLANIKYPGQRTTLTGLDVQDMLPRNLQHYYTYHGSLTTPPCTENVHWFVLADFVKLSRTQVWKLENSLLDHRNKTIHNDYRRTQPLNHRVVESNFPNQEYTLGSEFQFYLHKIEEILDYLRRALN

Compound | MIC [1, 21] [µg/mL] | MBC [1, 22] [µg/mL] | MIC [2, 23] [µg/mL] | MBC [2, 24] [µg/mL] | MIC [3, 25] [µg/mL] | MBC [3, 26] [µg/mL] | MIC [4, 27] [µg/mL] | MBC [4, 28] [µg/mL] | CFU count of biofilm ([5]; 72 h) | inhibition of H. pylori biofilm development ([5]; 72 h) | biofilm observed by fluorescence microscopy (Live/Dead) [5] | % OMV eDNA+/Total OMVs [6, 29] [%] | pOMV eDNA+ count versus untreated [6, 31] | total pOMVs count versus untreated [6, 31] | viability (flow cytometry) [7] | live cells (flow cytometry) [8] | Ki [10] [µM] | Ki [11] [µM] | Ki [12] [µM] | Ki [13] [µM] | further results
CC1(C)S[C@@H]2[C@H](NC(=O)[C@H](N)c3ccc(O)cc3)C(=O)N2[C@H]1C(=O)O [amoxicillin, reference compound] | 0.032 (≈ 0.0876 µM) | 0.032 (≈ 0.0876 µM) | 0.25 (≈ 0.684 µM) | 0.25 (≈ 0.684 µM) | 1 (≈ 2.74 µM) | 1 (≈ 2.74 µM) | 16 (≈ 43.8 µM) | 64 (≈ 175 µM) | 1.92 × 10^7 CFUs | did not inhibit H. pylori biofilm formation | well-structured biofilm with some dead cells | 16.52 | decrease | decrease | around 64% | 3.18 × 10^6 live cells/mL |  |  |  |  | % OMV eDNA+/Total OMVs ([6]; Biofilm T (treated with sub-MIC concentration)): 36.09%; bOMV eDNA+ versus untreated [6, 30]: no differences; total bOMVs versus untreated [6, 30]: no differences
Cc1ccc(C(C)C)cc1O [carvacrol] |  |  |  |  |  |  |  |  | No CFUs were observed | ability to inhibit the development of the H. pylori mature biofilm | no biofilm formation | 32.53 |  |  |  | 3.80 × 10^4 live cells/mL | 13.3 | 28 | 86.6 | 6.8 | Ki [9]: 8.4 µM; MBC ([1]; ATCC43504): 256 µg/mL (≈ 1700 µM); MIC ([1]; ATCC43504, 72 h): 128 µg/mL (≈ 852 µM); MBC ([2]; ATCCSD5214): > 16000 µg/mL; MIC ([2]; ATCCSD5214, 24 h): > 16000 µg/mL; MBC ([3]; ATCC53103): > 16000 µg/mL; MIC ([3]; ATCC53103, 24 h): > 16000 µg/mL; MBC ([4]; DSM17938): > 8000 µg/mL; MIC ([4]; DSM17938): 8000 µg/mL (≈ 53300 µM); MIC ([4]; DSM17938, 24 h): 8000 µg/mL (≈ 53300 µM); biofilm biomass percentage (crystal violet) versus untreated samples [5]: significantly lower; percentage of alamarBlue reduction in respect to the corresponding controls [5]: about 80%; pOMV eDNA+ count versus untreated [6]: no differences were found; total pOMVs count versus untreated [6]: lower count; MIC range [14]: 16 to 64 µg/mL; IC50 [15]: 300 ± 6.5 µM; viability (flow cytometry) [8]: 35%
NC(N)=Nc1nc(CSCCC(N)=NS(N)(=O)=O)cs1 [famotidine] |  |  |  |  |  |  |  |  |  |  |  |  |  |  |  |  |  |  |  |  | inhibitory profile toward HpCAβ [16]: nanomolar range
Cc1ncc([N+](=O)[O-])n1CCO [metronidazole] |  |  |  |  |  |  |  |  |  |  |  |  |  |  |  |  |  |  |  |  | MIC range [17]: 64 to 256 µg/mL
Cc1ccc(C(C)C)c(O)c1 [thymol] | 128 (≈ 852 µM) | 256 (≈ 1700 µM) | > 16000 | > 16000 | > 16000 | > 16000 | 4000 (≈ 26600 µM) | > 4000 | No CFUs were observed | ability to inhibit the development of the H. pylori mature biofilm | no biofilm formation | 35.47 | significative difference | significative difference | around 32% | 3.00 × 10^5 live cells/mL | 3.4 | 48.9 | 84.9 | > 100 | Ki [18]: > 100 µM; Ki [19]: > 100 µM; Ki [20]: > 100 µM; MIC ([4]; DSM17938, L. reuteri DSM 17938, text, read-out: MIC): 4000 µg/mL (≈ 26600 µM); biofilm biomass percentage (crystal violet) versus untreated samples ([5]; sub-MIC 64 µg/mL, 72 h): significantly lower; percentage of alamarBlue reduction in respect to the corresponding controls ([5]; sub-MIC 64 µg/mL, biofilm, 72 h): ~85%; MIC range [14]: 64 to 128 µg/mL; IC50 [15]: 200 ± 6.5 µM
